Data: paper PMC10610505, “Synthesis and Biological Evaluation of Some New 3-Aryl-2-thioxo-2,3-dihydroquinazolin-4(1H)-ones and 3-Aryl-2-(benzylthio)quinazolin-4(3H)-ones as Antioxidants; COX-2, LDHA, α-Glucosidase and α-Amylase Inhibitors; and Anti-Colon Carcinoma and Apoptosis-Inducing Agents” (Pharmaceuticals, 2023)
Where “and” joins values, the source holds several entries; their conditions need not be identical. Identical values can stand only once. Like-named read-outs stand apart in the source and are kept apart here.

Columns and labels:
[1] = DPPH radical scavenging assay; assay type: biochemical; details: for Mean IC50 for scavenging initial DPPH radicals: mean ± SD of three replicates; for IC50: mean ± SD, converted from mg/mL, read-out: Mean IC50 for scavenging initial DPPH radicals (converted)
Excerpt: In principle, the antioxidant power of a compound in this assay is correlated to its tendency to reduce the stable, purple-colored DPPH radical through a hydrogen atom transfer (HAT) mechanism and/or a single electron transfer mechanism, thereby converting it to the yellow-colored 2,2-diphenyl-1-picrylhydrazine, whereby this reduction is accompanied by a depletion in the amount of the initial DPPH radicals and a change in the absorbance of the test solution accordingly, which can be detected relative to the blank solution at λ = 517 nm.
The antioxidant potencies of all synthesized compounds were investigated using a 1,1 diphenyl-2-picrylhydrazyl (DPPH) radical scavenging assay according to the protocol described by Bersuder et al.. In brief, a 0.5 mL volume of DPPH ethanolic solution was mixed with an equal volume of each sample concentration (i.e., the test compound or butylated hydroxytoluene, BHT, which was used as the reference antioxidant in the positive control experiment), shaken strongly, and incubated at room temperature for 1 h in darkness. The absorbance of the residual DPPH radicals was measured at λ = 519 nm and compared to the negative control (without the test compound or reference antioxidant). The DPPH radical scavenging power was calculated using the following formula: scavenging efficiency (%) = (1 − Acompound/AControl) × 100, where Acompound and Acontrol are the absorbance of the tested compound and the negative control, respectively. […] Additionally, the ± SD values were calculated from three independent triplicate measurements.

α-amylase = test: In vitro α-amylase (AA) inhibition assay; details: mean ± SD of three replicates; for IC50: read-out: Mean IC50 α-Amylase (AA)
Method: Then, 180 µL of Labtest (the amylase substrate) was added and the samples were incubated for 8 min, followed by measuring the first reaction at 620 nm to obtain (X1). Afterwards, the reaction mixture was incubated for an additional 5 min at 37 °C; then, the second reaction was measured to obtain the final reading (X2). […] The results were expressed as IC50 µg/mL (as well as µM) and were determined from the standard curves.

[2] = biological target: purified recombinant human LDHA protein (Homo sapiens, UniProt P00338); test: Lactate dehydrogenase A (LDHA) inhibitory assay; assay type: biochemical; details: for Fold change of LDHA inhibition as compared to 0.1 mg/mL: % inhibition at 0.200 mg/mL divided by % inhibition at 0.100 mg/mL; for inhibition at 100 µg/mL: at 0.1 mg/mL; for inhibition at 100 µg/mL / inhibition at 200 µg/mL: read-out: LDHA mean % inhibition ± SD; for inhibition at 200 µg/mL: at 0.2 mg/mL
Method: The LDHA inhibitory effectiveness was investigated by measuring the amounts of consumed NADH [73]. […] The fluorescence of NADH, which has an excitation wavelength of 340 nm and an emission wavelength of 460 nm, was detected using a spectrofluorometer. […] The LDHA inhibitory efficiency was expressed as an inhibition percentage, which was determined via a comparison with the negative control experiments.

[3] = Viability assay (LDH release), HUVEC; assay type: cell-based, human; details: human
Method: (§1) The samples were diluted in Dulbecco’s Modified Eagle’s Medium, consisting of 10% fetal bovine serum (FBS), added to cells grown and cultured for 24 h in a 5% CO2-humidified incubator at 37 °C. Thereafter, the activity of lactate dehydrogenase released from damaged cells was determined in the collected supernatant aliquots using an ELISA end-point assay (Benchmark Plus, Bio-Rad, CA, USA); 0.1% Triton X-100 in the assay medium and the assay medium only were used as the positive and negative controls, respectively. Cell viability was expressed as a relative percentage of the OD values (at 550 nm) for compound-treated cells (final concentration of 200 µg /mL) and the negative control, which was shown as the mean % ± SD (n = 3). The results of the viability assays for the potential cytotoxic candidates were compared with the % of viable human umbilical vein endothelial cells (HUVEC) at the same concentration. These cells were grown in Dulbecco’s Modified Eagle’s Medium (PAN-Biotech; Barcelona, Spain) containing 10% FBS (Sigma Aldrich; St. Quentin-Fallavier, France), 2 mM Glutamine (Sigma Aldrich), 100 units/mL penicillin and […] streptomycin (Life Technologies; Paisley, UK).

COX-2 = biological target: T1, COX-2 (Homo sapiens, UniProt P35354); test: COX-2 inhibitory screening assay (Cayman kit); assay type: biochemical; details: for Increase in COX-2 inhibitory efficiency by duplicating the concentration: % inhibition at 0.200 mg/mL divided by % inhibition at 0.100 mg/mL; for inhibition at 100 µg/mL: at 0.100 mg/mL; for inhibition at 100 µg/mL / inhibition at 200 µg/mL: read-out: COX-2 mean % inhibition ± SD; for inhibition at 200 µg/mL: at 0.200 mg/mL
T1 construct: purchased Cayman Chemical Company 701080
T1 sequence (P35354 18-604): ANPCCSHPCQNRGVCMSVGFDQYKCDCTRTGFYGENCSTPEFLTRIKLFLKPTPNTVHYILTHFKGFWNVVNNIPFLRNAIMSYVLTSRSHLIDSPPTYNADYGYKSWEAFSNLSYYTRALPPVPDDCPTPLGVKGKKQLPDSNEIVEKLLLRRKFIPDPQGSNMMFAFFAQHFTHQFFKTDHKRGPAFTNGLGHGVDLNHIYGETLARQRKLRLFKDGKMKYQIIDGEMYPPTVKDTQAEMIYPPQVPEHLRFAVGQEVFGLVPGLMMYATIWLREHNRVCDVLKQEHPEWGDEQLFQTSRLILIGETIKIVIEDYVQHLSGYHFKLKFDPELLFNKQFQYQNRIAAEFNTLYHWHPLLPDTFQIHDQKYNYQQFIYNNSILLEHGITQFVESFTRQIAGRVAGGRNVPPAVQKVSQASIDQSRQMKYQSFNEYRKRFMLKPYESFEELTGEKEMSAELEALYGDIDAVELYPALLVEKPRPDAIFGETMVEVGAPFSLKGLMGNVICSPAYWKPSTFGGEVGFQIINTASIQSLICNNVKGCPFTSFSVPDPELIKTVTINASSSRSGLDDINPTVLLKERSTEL
Method: Each compound of the two series, 3a–h and 5a–h, was resuspended in 100% DMSO at a final concentration of 10 mg/mL. […] Briefly, 10 µL of the tested compound was added to a mixture of the reaction buffer solution (160 µL of 0.1 M Tris-HCl, pH 8.0, in the presence of 2 mM phenol and 5 mM EDTA), COX-2 (10 µL) and heme (10 µL). After a 10 min incubation at 37 °C, the reaction was started by adding arachidonic acid (10 µL), rapidly mixed and kept at 37 °C for 2 min. PGF2α generated via PGH2 reduction with stannous chloride (30 µL) was incubated at room temperature for 5 min. The PGF2α amount was then determined via an enzyme immunoassay. Prior to incubation with the COX-2 reaction (at room temperature 18 h), the 96-well plate was previously coated with a mouse anti-rabbit monoclonal antibody. Unbound reagents were removed by washing the plate followed by adding Ellman’s reagent to the well. The reaction product displaying a distinct yellow color was measured at 410 nm using a UV microplate reader. The % inhibition was calculated by comparing the PGF2α produced in the compound-treated samples with a control sample, using the following equation: % inhibition is equal to [([PGF2α]control − [PGF2α]sample) /[PGF2α ]control ] × 100. […] The COX-2 inhibitory efficiency was expressed as an inhibition percentage, which was determined via a comparison with the negative control experiments.

[4] = test system: HCT-116 human colon carcinoma cells; test: Viability assay (LDH release), HCT-116; assay type: cell-based; details: Homo sapiens; for viability at 200 µg/mL: read-out: Mean % of viable cells ± SD, HCT-116; for IC50: HCT-116, from concentration–response curves
Method: (§2) The anticancer activities of all the synthesized compounds were assessed against two human colon carcinoma cell lines, namely LoVo and HCT-116 (Table 6), via the determination of the mean percents of the viable cancerous cells remaining after being incubated with 200 µg/mL of each test compound for 48 h using LDH assay.
as §1

[5] = test system: LoVo human colon carcinoma cells; test: Viability assay (LDH release), LoVo; assay type: cell-based; details: Homo sapiens, LoVo; for viability at 200 µg/mL: 48 h, read-out: Mean % of viable cells ± SD, LoVo; for IC50: from concentration–response curves
Method: as §2, §1

[6] = human umbilical vein endothelial cells (HUVEC), 200 µg/mL, read-out: Mean % of viable cells ± SD, HUVEC

Compound | Mean IC50 for scavenging initial DPPH radicals [1] | IC50 [1] | Mean IC50 α-Amylase (AA) (α-amylase) | IC50 (α-amylase) | Fold change of LDHA inhibition as compared to 0.1 mg/mL [2] | inhibition at 100 µg/mL [2] | inhibition at 200 µg/mL [2] | viability at 200 µg/mL [3] | Increase in COX-2 inhibitory efficiency by duplicating the concentration (COX-2) | inhibition at 100 µg/mL (COX-2) | inhibition at 200 µg/mL (COX-2) | viability at 200 µg/mL ([4]; HCT-116, 48 h) | IC50 [4] | viability at 200 µg/mL [5] | IC50 [5] | IC50 ([2]; mean ± SD of three replicates) | viability at 200 µg/mL [3, 6] | IC50 (COX-2; mean ± SD of three replicates) | viability at 200 µg/mL ([4]; HCT-116, 200 µg/mL, 48 h) | viability at 200 µg/mL ([5]; 200 µg/mL)
COc1cc2[nH]c(=S)n(-c3cccc(C(F)(F)F)c3)c(=O)c2cc1OC [Compound 3c, 6,7-Dimethoxy-2-thioxo-3-(3-trifluoromethyl-phenyl)-2,3-dihydro-1H-quinazolin-4-one] | 100 ± 14 µg/mL | 262 µM | 92.000 ± 3.000 µg/mL | 241 µM | 0.20 fold | 17.8 ± 1.56% | 30.8 ± 1.77% | 99.67 ± 0.577% | 2.05 fold | 9.85 ± 1.63% | 20.2 ± 1.13% | 65 ± 3.61% | 281 µg/mL and 735 µM | 47.3 ± 2.52% | 275 µg/mL and 720 µM |  |  |  |  | 
O=c1c2cc(Cl)ccc2[nH]c(=S)n1-c1ccc(C(F)(F)F)cc1 [Compound 3d, 6-Chloro-2-thioxo-3-(4-trifluoromethyl-phenyl)-2,3-dihydro-1H-quinazolin-4-one] | 179 ± 16 µg/mL | 502 µM | 335.667 ± 3.055 µg/mL | 941 µM | 1.59 fold | 33.5 ± 2.12% | 53.5 ± 2.12% |  | 1.62 fold | 20.2 ± 1.13% | 32.8 ± 2.48% | 96 ± 1.73% |  | 87 ± 1.73% |  |  |  |  |  | 
O=c1c2cc(Br)ccc2[nH]c(=S)n1-c1ccc([N+](=O)[O-])cc1 [Compound 3g, 6-Bromo-3-(4-nitro-phenyl)-2-thioxo-2,3-dihydro-1H-quinazolin-4-one] | 62.5 ± 2 µg/mL | 165 µM | 179.333 ± 7.768 µg/mL | 474 µM |  | 68.2 ± 4.6% | 100% |  | 1.65 fold | 60 ± 2.83% | 98.9 ± 1.56% | 42.3 ± 2.52% | 168 µg/mL and 444 µM | 55.7 ± 3.06% | 222 µg/mL and 586 µM | 242 µM | 98.7 ± 1.16% | 252 µM |  | 
O=c1c2cc(Br)ccc2[nH]c(=S)n1-c1ccc(C(F)(F)F)cc1 [Compound 3e, 6-Bromo-2-thioxo-3-(4-trifluoromethyl-phenyl)-2,3-dihydro-1H-quinazolin-4-one] | 290 ± 28 µg/mL | 723 µM | 252.00 ± 4.583 µg/mL | 628 µM | 1.62 fold | 22.1 ± 1.2% | 36 ± 1.34% |  | 1.50 fold | 10.4 ± 1.7% | 15.7 ± 0.495% | 92.3 ± 2.52% |  | 90.7 ± 3.51% |  |  |  |  |  | 
O=c1c2cc(Cl)ccc2nc(SCc2ccccc2F)n1-c1cccc(C(F)(F)F)c1 [Compound 5a, 2-(2-Fluoro-benzylsulfanyl)-6-chloro-3-(3-trifluoromethyl-phenyl)-3H-quinazolin-4-one] | 80 ± 2 µg/mL | 172 µM | 86.667 ± 4.509 µg/mL | 186 µM | 1.62 fold | 24 ± 1.7% | 38.9 ± 1.13% |  | 1.85 fold | 34.2 ± 1.7% | 63.1 ± 5.87% |  |  |  |  |  |  |  | 89.7 ± 3.06% | 90.3 ± 1.53%
O=c1c2cc(Br)ccc2nc(SCc2ccc(Cl)cc2)n1-c1cccc(C(F)(F)F)c1 [Compound 5b, 2-(4-Chloro-benzylsulfanyl)-6-bromo-3-(3-trifluoromethyl-phenyl)-3H-quinazolin-4-one] | 167 ± 10 µg/mL | 318 µM | 162.000 ± 5.568 µg/mL | 308 µM | 1.55 fold | 14.5 ± 1.13% | 22.5 ± 1.7% |  | 2.11 fold | 9.25 ± 1.77% | 19.5 ± 2.12% |  | 246 µg/mL and 468 µM |  | 161 µg/mL and 306 µM |  | 96.33 ± 0.577% |  | 60.3 ± 2.52% | 37.7 ± 2.52%
